One data set relates to CF-1 mice. The note with it: in vivo.
In data set [1] the test system is mice. The note with it: mouse, in vivo.
The conditions of data set [2]: in vivo.
Data set [3] concerns mice. The note with it: mouse, in vivo. The source holds these as a separate data set.

For NGVCCGYKLCHOC [Mar1], the “analgesic activity in mouse hot plate assay” value in the data set on CF-1 mice was “potent analgesics”. Besides, in the data set on CF-1 mice (mouse), the “increase in the latency to first hind paw lick” value is reported as “dose-dependent”, the “latency to first hind paw lick” value is 39.5 ± 13.5 s and the “latency to lick the hind paw” value was “significantly increased”. Also, in the data set with mice [1], the “symptoms after high-dose i.c.v. administration” value is “akinesia and seizures”; the “symptoms after i.c.v. injection of HPLC fractions” value is on record as “hypokinetic “sluggish” symptoms”. Moreover, the “activity in formalin test (licking time)” value in data set [2] is on record as “active”. In the data set on mice [3], the “activity in tail-flick model” value is reported as “active”, the effective dose range result is “low nanomole range” and the “response latency in the tail flick model” value was “reduced the response latency”.
